In ChEMBL document CHEMBL6087405, “Discovery and optimization of anthraquinone derivatives containing substituted bisbenzyloxy groups as a novel scaffold damaged endoplasmic reticulum and against hepatocellular carcinoma cells” (Bioorg Med Chem, 2024) one finds IC50, Activity and viability data, which are given here for 27 compounds.

Test [1] relates to Huh-7. As to the kind of experiment: Antiproliferative activity against human Huh-7 cells measured after 48 hrs by MTT assay. It is filed as functional, cell-based. Particulars: Huh-7, 48 h.
The next test relates to A549. Nature of the test: Antiproliferative activity against human A549 cells measured after 48 hrs by MTT assay. It is filed as functional, cell-based. Particulars: A549, 48 h.
For the next test, the system named is MDA-MB-231. As to the kind of experiment: Antiproliferative activity against human MDA-MB-231 cells measured after 48 hrs by MTT assay. It is filed as functional, cell-based. Particulars: MDA-MB-231, 48 h.
In test [2] the test system is Huh-7. As to the kind of experiment: Induction of apoptosis in human Huh-7 cells assessed as late apoptotic cells at 20 uM measured after 48 hrs by Annexin V-PE staining based flow cytometry analysis (reference value: 2.06%). It is filed as functional.
In test [3] the test system is Huh-7. Nature of the test: Induction of apoptosis in human Huh-7 cells assessed as necrotic cells at 20 uM measured after 48 hrs by Annexin V-PE staining based flow cytometry analysis (reference value: 3.37%). It is filed as functional.
Test [4] has as its system Huh-7. Nature of the test: Induction of apoptosis in human Huh-7 cells assessed as viable cells at 20 uM measured after 48 hrs by Annexin V-PE staining based flow cytometry analysis (reference value: 93.69%). Particulars: read-out: Activity. It is filed as functional.
The subject of test [5] is Huh-7. As to the kind of experiment: Induction of apoptosis in human Huh-7 cells assessed as early apoptotic cells at 20 uM measured after 48 hrs by Annexin V-PE staining based flow cytometry analysis (reference value: 0.88%). It is filed as functional.

Structures can show the parent of a compound that is named as a salt. Peptide text beside a SMILES is read from it. * marks the point of attachment. Cbz = O=C(OCc1ccccc1)*

For `CNC(=O)c1cc(Oc2ccc(NC(=O)Nc3ccc(Cl)c(C(F)(F)F)c3)cc2)ccn1` [SORAFENIB], half-maximal inhibition in the test on Huh-7 [1] (IC50) was put at 6.53 µM.

Regarding `O=C(NCCCCO)c1cc(OCc2ccc(Cl)cc2)c2c(c1)C(=O)c1cccc(OCc3ccc(Cl)cc3)c1C2=O`, the 50% inhibitory concentration (IC50) is more than 100 µM in the test with A549, 17.5 µM in the test with MDA-MB-231 and 20.9 µM with Huh-7 [1].

On to `COc1ccc(COc2cccc3c2C(=O)c2c(OCc4ccc(OC)cc4)cc(C(=O)NCCCCCO)cc2C3=O)cc1`, for which the half-maximal inhibitory concentration (IC50) in the test on A549 came to 5 µM; in the test on MDA-MB-231, 2.84 µM; with Huh-7 [1] it was 4.14 µM.

Consider `Cc1ccc(COc2cccc3c2C(=O)c2c(OCc4ccc(C)cc4)cc(C(=O)NCCCCO)cc2C3=O)cc1`, for which the half-inhibitory concentration (IC50) worked out at 3.36 µM with A549, 1.29 µM in the test with MDA-MB-231 and 1.98 µM in the test with Huh-7 [1].

For `O=C(NCCNCCO)c1cc(OCc2ccc(Cl)cc2)c2c(c1)C(=O)c1cccc(OCc3ccc(Cl)cc3)c1C2=O`, the IC50 in the test on A549 was more than 100 µM; in the test with MDA-MB-231, 2.24 µM; in the test on Huh-7 [1], 40.4 µM.

With `O=C(NCCNCCO)c1cc(OCc2ccccc2)c2c(c1)C(=O)c1cccc(OCc3ccccc3)c1C2=O`, the IC50 with A549 came to 5.66 µM; in the test with MDA-MB-231, 1.27 µM; in the test on Huh-7 [1], 1.98 µM.

In the case of `O=C(NCCOCCO)c1cc(OCc2ccc(Cl)cc2)c2c(c1)C(=O)c1cccc(OCc3ccc(Cl)cc3)c1C2=O`, the IC50 was more than 100 µM in the test on A549, 7.1 µM in the test on MDA-MB-231 and 50.1 µM in the test on Huh-7 [1].

`COc1ccc(COc2cccc3c2C(=O)c2c(OCc4ccc(OC)cc4)cc(C(=O)NCCCCCCO)cc2C3=O)cc1`: the IC50 in the test on A549 turned out to be 3.49 µM; with MDA-MB-231 it was 0.97 µM; with Huh-7 [1], 1.13 µM.

Take `O=C(NCCCO)c1cc(OCc2ccc(Cl)cc2)c2c(c1)C(=O)c1cccc(OCc3ccc(Cl)cc3)c1C2=O`: the results for the half-inhibitory concentration (IC50) in the test on A549, in the test on MDA-MB-231 and in the test on Huh-7 [1] were more than 100 µM, 6.36 µM and 5.87 µM, respectively.

In the case of `O=C(NCCCCCCO)c1cc(OCc2ccc(Cl)cc2)c2c(c1)C(=O)c1cccc(OCc3ccc(Cl)cc3)c1C2=O`, the half-maximal inhibitory concentration (IC50) is more than 100 µM in the test on A549, 5.73 µM in the test with MDA-MB-231 and 36 µM with Huh-7 [1].

With `O=C(NCCO)c1cc(OCc2ccc(Cl)cc2)c2c(c1)C(=O)c1cccc(OCc3ccc(Cl)cc3)c1C2=O`, the half-maximal inhibitory concentration (IC50) in the test with A549 amounted to 21.1 µM; in the test on MDA-MB-231 it was 3.46 µM; in the test on Huh-7 [1] it was 4.79 µM.

With `COc1ccc(COc2cccc3c2C(=O)c2c(OCc4ccc(OC)cc4)cc(C(=O)NCCCO)cc2C3=O)cc1`, the IC50 was 3.55 µM in the test with A549, 1.94 µM in the test with MDA-MB-231 and 1.69 µM with Huh-7 [1].

In the test on MDA-MB-231, `COc1cccc2c1C(=O)c1c(O)c3c(c(O)c1C2=O)C[C@@](O)(C(=O)CO)C[C@@H]3O[C@H]1C[C@H](N)[C@H](O)[C@H](C)O1` [DOXORUBICIN HYDROCHLORIDE] yielded a concentration for half-maximal inhibition (IC50) of 3.14 µM.

As for `Cc1ccc(COc2cccc3c2C(=O)c2c(OCc4ccc(C)cc4)cc(C(=O)NCCO)cc2C3=O)cc1`, the values for the concentration for half-maximal inhibition (IC50) in the test with A549, in the test with MDA-MB-231 and in the test with Huh-7 [1] were 13.1 µM, 2.81 µM and 4.37 µM, respectively.

For `O=C(NCCCCCCO)c1cc(OCc2ccccc2)c2c(c1)C(=O)c1cccc(OCc3ccccc3)c1C2=O`, the IC50 in the test with A549 was 62.5 µM; in the test with MDA-MB-231, 2.82 µM; with Huh-7 [1] it was 8.87 µM.

`Cc1ccc(COc2cccc3c2C(=O)c2c(OCc4ccc(C)cc4)cc(C(=O)NCCCO)cc2C3=O)cc1`: the IC50 was 5.79 µM in the test on A549, 1.15 µM with MDA-MB-231 and 3.75 µM in the test with Huh-7 [1].

Turning to `Cc1ccc(COc2cccc3c2C(=O)c2c(OCc4ccc(C)cc4)cc(C(=O)NCCCCCO)cc2C3=O)cc1`, the values for the concentration for half-maximal inhibition (IC50) with A549, in the test with MDA-MB-231 and in the test with Huh-7 [1] were 12.3 µM, 2.48 µM and 5.08 µM, respectively.

Turning to `Cc1ccc(COc2cccc3c2C(=O)c2c(OCc4ccc(C)cc4)cc(C(=O)NCCCCCCO)cc2C3=O)cc1`, the figures for the 50% inhibitory concentration (IC50) in the test on A549, in the test on MDA-MB-231 and in the test on Huh-7 [1] were 7.81 µM, 2.36 µM and 4.83 µM, respectively.

In the case of `COc1ccc(COc2cccc3c2C(=O)c2c(OCc4ccc(OC)cc4)cc(C(=O)NCCO)cc2C3=O)cc1`, the values for the IC50 in the test with A549, in the test on MDA-MB-231 and with Huh-7 [1] were 4.68 µM, 2.45 µM and 2.71 µM, respectively.

`O=C(O)c1cc(O)c2c(c1)C(=O)c1cccc(O)c1C2=O` [RHEIN]: the IC50 with A549, with MDA-MB-231 and in the test on Huh-7 [1] was more than 100 µM each time.

In the case of `O=C(NCCOCCO)c1cc(OCc2ccccc2)c2c(c1)C(=O)c1cccc(OCc3ccccc3)c1C2=O`, the IC50 with A549 is more than 100 µM; in the test with MDA-MB-231 it was 113 µM; in the test with Huh-7 [1] it was 64.4 µM.

For `COc1ccc(COc2cccc3c2C(=O)c2c(OCc4ccc(OC)cc4)cc(C(=O)NCCCCO)cc2C3=O)cc1`, the IC50 in the test on A549 came to 5.04 µM; in the test on MDA-MB-231, 0.86 µM; in the test on Huh-7 [1] it was 0.34 µM.

With `COc1ccc(COc2cccc3c2C(=O)c2c(OCc4ccc(OC)cc4)cc(C(=O)NCCOCCO)cc2C3=O)cc1`, the IC50 came out at 17 µM in the test with A549, 18.5 µM with MDA-MB-231 and 9.24 µM in the test with Huh-7 [1].

Regarding `Cc1ccc(COc2cccc3c2C(=O)c2c(OCc4ccc(C)cc4)cc(C(=O)NCCOCCO)cc2C3=O)cc1`, the 50% inhibitory concentration (IC50) with A549 was more than 100 µM; with MDA-MB-231 it was 6.14 µM; in the test on Huh-7 [1] it was 14.9 µM.

As to `Cc1ccc(COc2cccc3c2C(=O)c2c(OCc4ccc(C)cc4)cc(C(=O)NCCNCCO)cc2C3=O)cc1`, the IC50 with A549 was 4.76 µM; in the test on MDA-MB-231 it was 0.91 µM; with Huh-7 [1], 1.96 µM.

For the compound `O=C(NCCCCCO)c1cc(OCc2ccc(Cl)cc2)c2c(c1)C(=O)c1cccc(OCc3ccc(Cl)cc3)c1C2=O`, the IC50 in the test on A549 is more than 100 µM; in the test on MDA-MB-231 it was 16 µM; in the test with Huh-7 [1], 51 µM.

As to `CC(C)[C@H](NC(=O)OCc1ccccc1)C(=O)N[C@@H](C)C(=O)N[C@@H](CC(=O)O)C(=O)O` (Cbz-Val-Ala-Asp-OH), the Activity in the test on Huh-7 [2] came out at 2.37%; with Huh-7 [3] it was 5.83%; with Huh-7 [5], 0.72%. For the same compound, the viability at 20 µM with Huh-7 [4] was found to be 91.1%.
